What is called Ki is the equilibrium dissociation constant of an inhibitor or competing ligand from its target. Low readings indicate tighter binding, high ones weaker binding. Broadly, the ED50 is the dose at which the effect has come halfway, by size or by number of responders. Read a high ED50 as a need for a large dose.

One data set deals with T1, dopamine 2 (D2) receptor (Rattus norvegicus, UniProt P61169).
T1 construct: A synaptosome fraction was separated from corpus striatum; from tissue; host or cells: corpus striatum of 9-10 week-old Wistar rats, synaptosome fraction
The data set can be described thus: Affinity for dopamine 2 receptor (tritiated spiperone binding). Further details: species or system Wistar rats. Conditions: rat corpus striatum synaptosomes; [3H]spiperone 0.2 nM; 37° C., 20 min. Here is the method:
Affinity for dopamine 2 receptor
A specific binding of dopamine 2 (D2) receptor was tested according to the method described in Eur. J. Pharmacol. 46, 377 (1977).
A synaptosome fraction was separated from corpus striatum of 9-10 week-old Wistar rats, and suspended in 50 mM Tris-HCl buffer (pH 7.1) containing 120 mM sodium chloride, 5 mM potassium chloride, 2 mM calcium chloride, 1 mM magnesium chloride, 10 μM pargyline and 0.1% ascorbic acid for the experiment.
The test compound at several concentrations and tritiated spiperone (final concentration 0.2 nM) were added to the synaptosome suspension, and each mixture was incubated at 37° C. for 20 minutes. After the incubation, the mixture was filtered with suction through Whatman GF/B (trade mark) glass filter. The filter was washed with 50 mM Tris-HCl buffer (pH 7.7), and the radioactivity of the filter was measured by a liquid scintillation counter. Non-specific binding was determined in the presence of 10^-4 M (±)-sulpiride. The concentration necessary for 50% inhibition (IC50) was determined on a graph, and inhibition constant (Ki value) was calculated.

In data set [1] the target is T2, serotonin 1A (5-HT1A) receptor (Rattus norvegicus, UniProt P19327).
T2 construct: A crude synaptosome fraction was separated from hippocampus; from tissue; host or cells: hippocampus of 9-10 week-old Wistar rats, crude synaptosome fraction
T2 sequence (P19327 1-422): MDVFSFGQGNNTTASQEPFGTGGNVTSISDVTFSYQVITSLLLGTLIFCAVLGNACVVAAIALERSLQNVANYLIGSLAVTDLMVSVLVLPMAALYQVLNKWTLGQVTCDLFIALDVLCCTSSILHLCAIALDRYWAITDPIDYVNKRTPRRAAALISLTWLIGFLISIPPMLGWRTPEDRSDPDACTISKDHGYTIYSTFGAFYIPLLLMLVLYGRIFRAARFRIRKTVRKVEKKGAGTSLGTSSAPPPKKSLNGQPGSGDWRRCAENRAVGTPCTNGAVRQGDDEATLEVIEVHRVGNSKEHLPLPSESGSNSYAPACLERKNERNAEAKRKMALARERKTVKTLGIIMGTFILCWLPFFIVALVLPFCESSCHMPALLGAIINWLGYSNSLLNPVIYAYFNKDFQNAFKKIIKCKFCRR
Briefly: Affinity for serotonin 1A receptor (tritiated 8-OH-DPAT binding). Conditions: rat hippocampus crude synaptosomes; [3H]8-OH-DPAT 0.2 nM; 37° C., 12 min. Further details: species or system Wistar rats. Here is the method:
Affinity for serotonin 1A receptor
A specific binding of serotonin 1A (5-HT1A) receptor was tested according to the method described in J. Neurochem. 44, 1685 (1985).
(§1) A crude synaptosome fraction was separated from hippocampus of 9-10 week-old Wistar rats, and suspended in 50 mM Tris-HCl buffer (pH 7.4) containing 1 mM manganese chloride for the experiment. The test compound at several concentrations and tritiated 8-hydroxy-2-dipropyl-aminotetralin(8-OH-DPAT, final concentration 0.2 nM) were added to the synaptosome suspension, and each mixture was incubated at 37° C. for 12 minutes. After the incubation, the mixture was filtered with suction through Whatman GF/B (trade mark) glass filter. The filter was washed with 50 mM Tris-HCl buffer (pH 7.7), and the radioactivity of the filter was measured by a liquid scintillation counter. Non-specific binding was determined in the presence of 10^-5 M serotonin (5-HT). The concentration necessary for 50% inhibition (IC50) was determined on a graph, and inhibition constant (Ki value) was calculated.

In data set [2] the target is T3, serotonin 2 (5-HT2) receptor (Rattus norvegicus, UniProt P14842).
T3 construct: A crude synaptosome fraction was separated from hippocampus; from tissue; host or cells: hippocampus of 9-10 week-old Wistar rats, crude synaptosome fraction
The data set can be described thus: Affinity for serotonin 2 receptor (tritiated ketanserin binding). Further details: species or system Wistar rats. The conditions noted are these: rat hippocampus crude synaptosomes; [3H]ketanserin 0.2 nM; 37° C., 20 min. Here is the method:
Affinity for serotonin 2 receptor
A specific binding of serotonin 2 (5-HT2) receptor was tested according to the method described in Mol. Pharmacol. 21, 301 (1981).
as §1, with “7.7)” for “7.4) containing 1 mM manganese chloride”, “concentration” for “concentrations”, “ketanserin (final” for “8-hydroxy-2-dipropyl-aminotetralin(8-OH-DPAT, final”, “20” for “12”, “mianserin.” for “serotonin (5-HT).”, “value )” for “value)”

Data set [3] has as its system catalepsy induced by haloperidol. Conditions: preclinical; cited from earlier work.
In data set [4] the test system is negative symptoms, EPS, depression and internal secretion in patients. Conditions: cited from earlier work.
The subject of data set [5] is apomorphine-induced hyperactivity. The data set can be described thus: Anti-apomorphine action (in mouse). It is filed as in vivo, male dd mice. Conditions: oral, 60 min before 0.5 mg/kg s.c. apomorphine hydrochloride, movement lowered by 50%. As to the method: Anti-apomorphine action (in mouse)
Male dd mice at 3 per group were used for the experiment. The test compound was orally administered to the mice, and 60 minutes later, 0.5 mg/kg of apomorphine hydrochloride was subcutaneously administered. the movement for 20 minutes from immediately after the administration of apomorphine hydrochloride was measured using Valimex (Columbus, USA). Each group was tested four times, and the amount of the test compound necessary to lower the movement by 50% than that of a control group was calculated from a graph and taken as ED50.

The subject of data set [6] is ergometrine-induced head-twitches. Briefly: Anti-ergometrine action (head-twitch). It counts as in vivo, male ddY mice. Conditions: Mus musculus; oral, 60 min before 20 mg/kg i.p. ergometrine maleate; head-twitch vanished, Probit. As to the method: Male ddY mice at 12 per group were used for the experiment. The test compound was orally administered to the mice, and 60 minutes later, 20 mg/kg of ergometrine maleate was intraperitoneally administered. The amount of the test compound necessary to vanish the head-twitch reaction for 10 minutes from immediately after the administration of ergometrine maleate was calculated as ED50 value by Probit method.

T3 sequence (P14842 whole entry): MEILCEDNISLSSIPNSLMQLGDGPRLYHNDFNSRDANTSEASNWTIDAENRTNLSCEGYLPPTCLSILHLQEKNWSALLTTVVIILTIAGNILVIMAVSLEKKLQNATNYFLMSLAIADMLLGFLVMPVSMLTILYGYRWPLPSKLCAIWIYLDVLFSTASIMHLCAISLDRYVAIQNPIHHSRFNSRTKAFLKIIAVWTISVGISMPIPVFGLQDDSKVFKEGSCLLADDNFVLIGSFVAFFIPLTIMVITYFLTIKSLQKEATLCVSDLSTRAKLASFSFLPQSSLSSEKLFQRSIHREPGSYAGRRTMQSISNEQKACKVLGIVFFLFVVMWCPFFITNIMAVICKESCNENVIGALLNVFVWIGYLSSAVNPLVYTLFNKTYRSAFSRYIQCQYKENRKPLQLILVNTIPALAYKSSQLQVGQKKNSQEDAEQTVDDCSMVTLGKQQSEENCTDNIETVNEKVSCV
T1 sequence (P61169 whole entry): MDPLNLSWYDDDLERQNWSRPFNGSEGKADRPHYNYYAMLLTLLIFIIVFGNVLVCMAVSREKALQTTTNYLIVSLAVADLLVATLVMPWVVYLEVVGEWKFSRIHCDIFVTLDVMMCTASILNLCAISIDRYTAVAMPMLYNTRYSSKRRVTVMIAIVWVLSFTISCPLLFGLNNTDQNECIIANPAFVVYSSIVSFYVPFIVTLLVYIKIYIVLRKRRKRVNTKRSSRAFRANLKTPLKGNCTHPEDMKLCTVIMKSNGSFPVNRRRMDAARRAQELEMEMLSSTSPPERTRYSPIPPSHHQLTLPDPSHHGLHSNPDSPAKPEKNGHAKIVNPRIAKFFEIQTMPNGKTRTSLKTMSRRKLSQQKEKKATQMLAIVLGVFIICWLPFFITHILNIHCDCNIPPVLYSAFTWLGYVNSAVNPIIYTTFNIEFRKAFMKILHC

Take `O=C1CCCc2sc(CCN3CCC(c4coc5cc(F)ccc45)CC3)cc2N1` [Example 147, 2-(2-(4-(6-fluorobenzo(b)furan-3-yl)piperidin-1-yl)ethyl)-4,6,7,8-tetrahydro-5H-thieno[3,2-b]azepin-5-one]: the Ki on dopamine 2 (D2) receptor is 0.4 nM; in data set [1], 0.32 nM; in data set [2], 0.86 nM.

On to `O=C1CC2(CCCC2)CC(=O)N1CCCCN1CCN(c2ncccn2)CC1` [buspirone], for which the “effect on catalepsy induced by haloperidol” value in data set [3] was “reverse catalepsy induced by haloperidol”. Moreover, the “clinical effect on symptoms” value in data set [4] was “improved the depression and EPS caused by haloperidol therapy”.

As for `CCc1c(CCN2CCC(c3coc4cc(F)ccc34)CC2)sc2c1CCN(C(C)=O)C2` [Example 85, 6-acetate-3-ethyl-2-(2-(4-(6-fluorobenzo(b)furan-3-yl)piperidin-1-yl)ethyl)-4,5,6,7-tetrahydro-thieno[2,3-c]pyridine], the inhibitory constant (Ki) turned out to be 0.52 nM on dopamine 2 (D2) receptor, 0.31 nM in data set [1] and 0.38 nM in data set [2]. Also, the 50% effective dose (ED50) in data set [5] was 0.79 mg/kg; in data set [6], 0.52 mg/kg.

`CCc1c(CCN2CCC(c3nsc4cc(F)ccc34)CC2)sc2c1CCN(C(C)=O)C2` [Example 86, 6-acetyl-3-ethyl-2-(2-(4-(6-fluoro-1,2-benzisothiazol-3-yl)piperidin-1-yl)ethyl)-4,5,6,7-tetrahydrothieno[2,3-c]pyridine]: the Ki was determined as 0.17 nM on dopamine 2 (D2) receptor, 0.59 nM in data set [1] and 0.092 nM in data set [2]. For the same molecule, the ED50 is 0.54 mg/kg in data set [5] and 0.27 mg/kg in data set [6].

As to `CCc1c(CCN2CCC(c3noc4cc(F)ccc34)CC2)sc2c1CCN(C(C)=O)C2` [Example 73, 6-acetyl-2-(2-(4-(6-fluoro-1,2-benzisoxazol-3-yl)piperidin-1-yl)ethyl)-3-ethyl-4,5,6,7-tetrahydrothieno[2,3-c]pyridine], the Ki at dopamine 2 (D2) receptor amounted to 0.25 nM; in data set [1], 0.16 nM; in data set [2] it was 0.082 nM. In addition, the 50% effective dose (ED50) worked out at 0.25 mg/kg in data set [5] and 0.35 mg/kg in data set [6].

`CC(=O)N1CCc2c(sc(CCN3CCC(c4noc5cc(F)ccc45)CC3)c2C)C1` [Example 42, 6-acetyl-2-(2-(4-(6-fluoro-1,2-benzisoxazol-3-yl)piperidin-1-yl)ethyl)-4,5,6,7-tetrahydro-3-methylthieno[2,3-c]pyridine]: the results for the Ki (at dopamine 2 (D2) receptor; in data set [1]; in data set [2]) were 0.23 nM, 1.1 nM and 0.2 nM, respectively. For the same molecule, the ED50 in data set [5] stood at 0.2 mg/kg; in data set [6], 0.19 mg/kg.

As to `O=C1CCCc2sc(CCN3CCC(c4noc5cc(F)ccc45)CC3)cc2N1` [Example 15, 2-(2-(4-(6-fluoro-1,2-benzisoxazol-3-yl)piperidin-1-yl)ethyl)-4,6,7,8-tetrahydro-5H-thieno[3,2-b]azepin-5-one], the results for the Ki (at dopamine 2 (D2) receptor; in data set [1]; in data set [2]) were 0.065 nM, 1.6 nM and 0.32 nM, respectively. The values for the median effective dose (ED50) in data set [5] and in data set [6] were 0.063 mg/kg and 0.089 mg/kg, respectively.

As to `CC(=O)N1CCc2cc(C(=O)CCCN3CCC(c4noc5cc(F)ccc45)CC3)sc2C1` [Example 43, 6-acetyl-2-(4-(4-(6-fluoro-1,2-benzisoxazol-3-yl)piperidin-1-yl)butyryl)-4,5,6,7-tetrahydrothieno[2,3-c]pyridine], the results for the Ki (on dopamine 2 (D2) receptor; in data set [1]; in data set [2]) were 1.5 nM, 87 nM and 0.11 nM, respectively.

On to `CCc1c(CCN2CCC(c3csc4cc(F)ccc34)CC2)sc2c1CCN(C(C)=O)C2` [Example 84, 6-acetyl-3-ethyl-2-(2-(4-(6-fluorobenzo-(b)thiophen-3-yl)piperidin-1-yl)ethyl)-4,5,6,7-tetrahydrothieno[2,3-c]pyridine], for which the inhibition constant (Ki) at dopamine 2 (D2) receptor stood at 0.21 nM; in data set [1], 0.13 nM; in data set [2] it was 0.18 nM. Moreover, the figures for the ED50 in data set [5] and in data set [6] were 0.73 mg/kg and 0.95 mg/kg, respectively.

Regarding `Cc1ccc2occ(C3CCN(CCc4cc5c(s4)CCCC(=O)N5)CC3)c2c1` [Example 148, 2-(2-(4-(5-methylbenzo(b)furan-3-yl)piperidin-1-yl)ethyl)-4,6,7,8-tetrahydro-5H-thieno[3,2-b]azepin-5-one], the figures for the Ki (on dopamine 2 (D2) receptor; in data set [1]; in data set [2]) were 2.3 nM, 0.24 nM and 8.6 nM, respectively.

Take `Cc1nc2sccn2c(=O)c1CCN1CCC(=C(c2ccc(F)cc2)c2ccc(F)cc2)CC1` [ritanserin]: in data set [4], the “EPS / side-effects in clinical use” value is recorded as “reduces the incidence of EPS caused by typical antipsychotic drug therapy” and the “clinical effect on symptoms” value was “ameliorates negative symptoms”.

Take `CCc1sc2c(c1CCN1CCC(c3noc4cc(F)ccc34)CC1)CCN(C(C)=O)C2` [Example 32, 6-acetyl-2-ethyl-3-(2-(4-(6-fluoro-1,2-benzisoxazol-3-yl)piperidin-1-yl)ethyl)-4,5,6,7-tetrahydrothieno[2,3-c]pyridine]: the Ki on dopamine 2 (D2) receptor is 0.1 nM; in data set [1] it was 54 nM; in data set [2], 0.086 nM.

Regarding `CCc1c(CCN2CCC(c3coc4ccc(C)cc34)CC2)sc2c1CCN(C(C)=O)C2` [Example 145, 6-acetyl-3-ethyl-2-(2-(4-(5-methylbenzo(b)-furan-3-yl)piperidin-1-yl)ethyl)-4,5,6,7-tetrahydrothieno[2,3-c]pyridine], the results for the inhibition constant Ki (at dopamine 2 (D2) receptor; in data set [1]; in data set [2]) were 3.8 nM, 0.14 nM and 2.8 nM, respectively.

With `CC(=O)N1CCc2c(sc(C)c2CCN2CCC(c3csc4cc(F)ccc34)CC2)C1` [Example 53, 6-acetyl-3-(2-(4-(6-fluorobenzo(b)thiophen-3-yl)piperidin-1-yl)ethyl)-4,5,6,7-tetrahydro-2-methylthieno[2,3-c]pyridine], the inhibitory constant (Ki) at dopamine 2 (D2) receptor was 0.15 nM; in data set [1], 3.7 nM; in data set [2], 0.043 nM.

In the case of `Cc1sc2c(c1CCN1CCC(c3noc4cc(F)ccc34)CC1)NC(=O)CCC2` [Example 22, 3-(2-(4-(6-fluoro-1,2-benzoxazolyl-3-yl)piperidin-1-yl)ethyl)-2-methyl-4,6,7,8-tetrahydro-5H-thieno[3,2-b]azepin-5-one], the inhibition constant (Ki) at dopamine 2 (D2) receptor was 0.52 nM; in data set [1], 15 nM; in data set [2], 0.21 nM. Moreover, the median effective dose (ED50) was 1.1 mg/kg in data set [5] and 1.5 mg/kg in data set [6].

These data come from patent US5532240A, “Condensed thiophene compound and pharmaceutical use thereof” (Yoshitomi Pharmaceutical Industries, Ltd., priority 1991, dated 1996).
